Columns and labels:
[1] = biological target: T1, PI3K-α (PIK3CA) H1047R mutant, p110α/p85α complex (Homo sapiens, UniProt P42336, H1047R); assay: PI3K-alpha kinase (PIK3CA) biochemical activity, ADP-Glo, H1047R mutant; conditions: Soy PI lipid substrate
T1 construct: Recombinant, catalytically active human full length PIK3KA Wild-type and H1047R mutant; 6×His (N); purchased EMD Millipore Sigma 14-792M
Method in brief: (§1)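 ADP formation measured by ADP-Glo luminescence after reaction at 27 °C to about 10% ATP turnover, using 20 uM ATP, 50 uM PIP2diC8 or soy PI lipid, HEPES pH 7.4 with MgCl2. Enzyme (1-5 nM WT or H1047R p110α/p85α) and compound preincubated 1 h first; 10-point 1:3 curves fitted four-parameter for IC50.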

[2] = biological target: T2, PI3K-α (PIK3CA) wild-type (WT), p110α/p85α complex (Homo sapiens, UniProt P42336); assay: PI3K-alpha kinase (PIK3CA) biochemical activity, ADP-Glo, wild-type; conditions: Soy PI lipid substrate
T2 construct: Recombinant, catalytically active human full length PIK3KA Wild-type and H1047R mutant; 6×His (N); purchased EMD Millipore Sigma 14-602M
Method in brief: as §1

T1 sequence (P42336 whole entry H1047R): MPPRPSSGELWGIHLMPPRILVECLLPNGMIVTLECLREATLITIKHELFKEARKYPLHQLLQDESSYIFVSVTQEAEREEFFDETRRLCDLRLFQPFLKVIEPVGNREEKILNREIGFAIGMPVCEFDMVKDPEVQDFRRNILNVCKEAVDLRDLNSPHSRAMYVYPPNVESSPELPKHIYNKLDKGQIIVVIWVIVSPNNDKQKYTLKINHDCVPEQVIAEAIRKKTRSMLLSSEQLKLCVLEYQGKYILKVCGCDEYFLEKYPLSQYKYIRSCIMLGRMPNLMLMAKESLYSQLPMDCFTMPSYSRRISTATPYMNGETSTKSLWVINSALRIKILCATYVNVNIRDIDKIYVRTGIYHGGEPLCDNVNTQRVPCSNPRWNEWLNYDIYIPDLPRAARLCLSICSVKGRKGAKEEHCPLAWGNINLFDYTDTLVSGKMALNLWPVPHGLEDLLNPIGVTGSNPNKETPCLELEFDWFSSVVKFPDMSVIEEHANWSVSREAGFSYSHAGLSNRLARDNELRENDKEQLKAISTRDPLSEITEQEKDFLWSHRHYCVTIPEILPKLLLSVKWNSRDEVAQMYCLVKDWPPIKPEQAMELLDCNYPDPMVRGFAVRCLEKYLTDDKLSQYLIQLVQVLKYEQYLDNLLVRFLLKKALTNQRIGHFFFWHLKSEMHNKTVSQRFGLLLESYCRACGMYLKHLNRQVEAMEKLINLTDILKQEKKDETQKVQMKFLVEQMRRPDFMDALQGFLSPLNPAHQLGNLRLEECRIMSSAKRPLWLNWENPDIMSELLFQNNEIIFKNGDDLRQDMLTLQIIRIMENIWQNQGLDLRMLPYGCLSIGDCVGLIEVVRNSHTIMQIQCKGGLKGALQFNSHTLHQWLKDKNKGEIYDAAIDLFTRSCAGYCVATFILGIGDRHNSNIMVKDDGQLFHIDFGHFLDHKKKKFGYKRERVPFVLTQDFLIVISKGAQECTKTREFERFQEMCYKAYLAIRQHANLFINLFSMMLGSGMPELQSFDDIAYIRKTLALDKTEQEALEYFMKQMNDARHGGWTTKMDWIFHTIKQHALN
T1 sequence (P27986 whole entry partner): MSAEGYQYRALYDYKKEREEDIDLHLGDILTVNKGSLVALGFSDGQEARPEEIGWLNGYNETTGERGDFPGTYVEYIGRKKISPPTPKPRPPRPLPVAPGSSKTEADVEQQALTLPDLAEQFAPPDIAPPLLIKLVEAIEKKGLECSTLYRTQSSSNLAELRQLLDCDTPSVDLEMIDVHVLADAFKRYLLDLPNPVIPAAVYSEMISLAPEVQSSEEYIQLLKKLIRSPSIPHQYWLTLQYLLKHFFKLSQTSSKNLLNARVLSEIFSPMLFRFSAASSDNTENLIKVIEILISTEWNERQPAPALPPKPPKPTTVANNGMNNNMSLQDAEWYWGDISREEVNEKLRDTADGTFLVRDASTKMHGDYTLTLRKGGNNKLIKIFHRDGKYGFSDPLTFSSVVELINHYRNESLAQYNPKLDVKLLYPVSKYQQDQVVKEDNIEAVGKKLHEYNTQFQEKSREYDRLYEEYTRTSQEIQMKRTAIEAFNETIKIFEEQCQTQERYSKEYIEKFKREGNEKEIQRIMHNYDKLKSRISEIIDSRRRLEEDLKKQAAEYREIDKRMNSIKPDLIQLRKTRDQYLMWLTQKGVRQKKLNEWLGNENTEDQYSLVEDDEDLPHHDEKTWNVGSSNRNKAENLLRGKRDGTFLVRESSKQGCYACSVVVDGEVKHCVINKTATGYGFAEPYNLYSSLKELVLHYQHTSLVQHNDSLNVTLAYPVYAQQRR

Row | IC50 [1] | IC50 [2] | SMILES
1 | 500 to 1000 nM | > 10000 nM | Cc1cc(C(C)Nc2ccccc2C(=O)O)c2oc(-c3ccc4nn(CC(C)(C)O)cc4c3)cc(=O)c2c1 (single isomer, unassigned) [Example 122, 2-[1-[2-[2-(2-Hydroxy-2-methyl-propyl)indazol-5-yl]-6-methyl-4-oxo-chromen-8-yl]ethylamino]benzoic acid]
2 | < 500 nM | 500 to 1000 nM | Cc1cn2cc(-c3oc4c(C(C)Nc5ccccc5C(=O)O)cc(F)cc4c(=O)c3C)ccc2n1 (single isomer, unassigned) [Example 124, 2-[1-[6-Fluoro-3-methyl-2-(2-methylimidazo[1,2-a]pyridin-6-yl)-4-oxo-chromen-8-yl]ethylamino]benzoic acid]
3 | 500 to 1000 nM | 5000 to 10000 nM | Cc1cc(C(C)Nc2ccccc2C(=O)O)c2oc(-c3cccn4ccnc34)cc(=O)c2c1 (single isomer, unassigned) [Example 127, 2-[1-(2-Imidazo[1,2-a]pyridin-8-yl-6-methyl-4-oxo-chromen-8-yl)ethylamino]benzoic acid]
4 | < 500 nM | 500 to 1000 nM | Cc1c(-c2cc3ccccc3[nH]2)oc2c(C(C)Nc3ccccc3C(=O)O)cc(F)cc2c1=O (single isomer, unassigned) [Example 129, 2-[1-[6-Fluoro-2-(1H-indol-2-yl)-3-methyl-4-oxo-chromen-8-yl]ethylamino]benzoic acid]
5 | < 500 nM | 500 to 1000 nM | Cc1cc(C(C)Nc2ccccc2C(=O)O)c2oc(-c3ccc4nn(C)cc4n3)c(C)c(=O)c2c1 (single isomer, unassigned) [Example 130, 2-[1-[3,6-Dimethyl-2-(2-methylpyrazolo[4,3-b]pyridin-5-yl)-4-oxo-chromen-8-yl]ethylamino]benzoic acid]
6 | < 500 nM | 1000 to 5000 nM | Cc1cc(C(C)Nc2ccccc2C(=O)O)c2oc(-c3ccc4c(c3)CN(C)C4=O)c(C)c(=O)c2c1 (single isomer, unassigned) [Example 137, 2-[1-[3,6-Dimethyl-2-(2-methyl-1-oxo-isoindolin-5-yl)-4-oxo-chromen-8-yl]ethylamino]benzoic acid]
7 | 500 to 1000 nM | > 10000 nM | Cc1cc(C(C)Nc2ccccc2C(=O)O)c2oc(-c3ccc4c(cnn4CC4COC4)c3)cc(=O)c2c1 (single isomer, unassigned) [Example 138, 2-[1-[6-Methyl-2-[1-(oxetan-3-ylmethyl)indazol-5-yl]-4-oxo-chromen-8-yl]ethylamino]benzoic acid]
8 | < 500 nM | 1000 to 5000 nM | Cc1cc(C(C)Nc2ccccc2C(=O)O)c2oc(-c3cn(C)c4ccccc34)c(C)c(=O)c2c1 (single isomer, unassigned) [Example 140, 2-[1-[3,6-Dimethyl-2-(1-methylindol-3-yl)-4-oxo-chromen-8-yl]ethylamino]benzoic acid]
9 | < 500 nM | 1000 to 5000 nM | Cc1cc(C(C)Nc2ccccc2C(=O)O)c2oc(-c3ccc4nc(C)cn4n3)c(C)c(=O)c2c1 (single isomer, unassigned) [Example 142, 2-[1-[3,6-Dimethyl-2-(2-methylimidazo[1,2-b]pyridazin-6-yl)-4-oxo-chromen-8-yl]ethylamino]benzoic acid]
10 | < 500 nM | 500 to 1000 nM | Cc1cc(C(C)Nc2ccccc2C(=O)O)c2oc(-c3cn(C)c4ccccc34)cc(=O)c2c1 (single isomer, unassigned) [Example 143, 2-[1-[6-Methyl-2-(1-methylindol-3-yl)-4-oxo-chromen-8-yl]ethylamino]benzoic acid]
11 | < 500 nM | 500 to 1000 nM | Cc1cc(C(C)Nc2ccccc2C(=O)O)c2oc(-c3nn(C)c4ccccc34)c(C)c(=O)c2c1 (single isomer, unassigned) [Example 146, 2-[1-[3,6-Dimethyl-2-(1-methylindazol-3-yl)-4-oxo-chromen-8-yl]ethylamino]benzoic acid]
12 | < 500 nM | 1000 to 5000 nM | Cc1cc(C(C)Nc2ccccc2C(=O)O)c2oc(-c3cc4ncccc4[nH]3)cc(=O)c2c1 (single isomer, unassigned) [Example 147, 2-[1-[6-Methyl-4-oxo-2-(1H-pyrrolo[3,2-b]pyridin-2-yl)chromen-8-yl]ethylamino]benzoic acid]
13 | < 500 nM | 1000 to 5000 nM | Cc1cc(C(C)Nc2ccccc2C(=O)O)c2oc(-c3ccc4ccnn4c3)c(C)c(=O)c2c1 (single isomer, unassigned) [Example 157, 2-[1-(3,6-Dimethyl-4-oxo-2-pyrazolo[1,5-a]pyridin-6-yl-chromen-8-yl)ethylamino]benzoic acid]
14 | < 500 nM | 1000 to 5000 nM | Cc1cc(C(C)Nc2ccccc2C(=O)O)c2oc(-c3ccc4ccn(C)c4n3)cc(=O)c2c1 (single isomer, unassigned) [Example 159, 2-[1-[6-Methyl-2-(1-methylpyrrolo[2,3-b]pyridin-6-yl)-4-oxo-chromen-8-yl]ethylamino]benzoic acid]
15 | 500 to 1000 nM | > 10000 nM | Cc1cc(C(C)Nc2ccccc2C(=O)O)c2oc(-c3ccc4nnc(C(F)(F)F)n4c3)cc(=O)c2c1 (single isomer, unassigned) [Example 162, 2-[1-[6-Methyl-4-oxo-2-[3-(trifluoromethyl)-[1,2,4]triazolo[4,3-a]pyridin-6-yl]chromen-8-yl]ethylamino]benzoic acid]

The remaining lines, values behind:

Row | SMILES | IC50 [1] | IC50 [2]
16 | Cc1cc(C(C)Nc2ccccc2C(=O)O)c2oc(-c3ccc4c(cnn4CC(C)(C)O)c3)cc(=O)c2c1 (single isomer, unassigned) [Example 123, 2-[1-[2-[1-(2-Hydroxy-2-methyl-propyl)indazol-5-yl]-6-methyl-4-oxo-chromen-8-yl]ethylamino]benzoic acid] | < 500 nM | 1000 to 5000 nM
17 | Cc1cc(C(C)Nc2ccccc2C(=O)O)c2oc(-c3ccc4c(cnn4C)n3)c(C)c(=O)c2c1 (single isomer, unassigned) [Example 131, 2-[1-[3,6-Dimethyl-2-(1-methylpyrazolo[4,3-b]pyridin-5-yl)-4-oxo-chromen-8-yl]ethylamino]benzoic acid] | < 500 nM | 1000 to 5000 nM
18 | Cc1cc(C(C)Nc2ccccc2C(=O)O)c2oc(-c3ccn4c(-c5ncco5)c(C)nc4c3)cc(=O)c2c1 (single isomer, unassigned) [Example 133, 2-[1-[6-Methyl-2-(2-methyl-3-oxazol-2-yl-imidazo[1,2-a]pyridin-7-yl)-4-oxo-chromen-8-yl]ethylamino]benzoic acid] | > 10000 nM | > 10000 nM
19 | Cc1cc(C(C)Nc2ccccc2C(=O)O)c2oc(-c3ccc4cc(C)nn4c3)cc(=O)c2c1 (single isomer, unassigned) [Example 134, 2-[1-[6-Methyl-2-(2-methylpyrazolo[1,5-a]pyridin-6-yl)-4-oxo-chromen-8-yl]ethylamino]benzoic acid] | < 500 nM | 1000 to 5000 nM
20 | Cc1cc(C(C)Nc2ccccc2C(=O)O)c2oc(-c3ccc4cn(C)nc4n3)cc(=O)c2c1 (single isomer, unassigned) [Example 135, 2-[1-[6-Methyl-2-(2-methylpyrazolo[3,4-b]pyridin-6-yl)-4-oxo-chromen-8-yl]ethylamino]benzoic acid] | < 500 nM | 5000 to 10000 nM
21 | Cc1cc(C(C)Nc2ccccc2C(=O)O)c2oc(-c3cccc4c3cnn4C)cc(=O)c2c1 (single isomer, unassigned) [Example 136, 2-[1-[6-Methyl-2-(1-methylindazol-4-yl)-4-oxo-chromen-8-yl]ethylamino]benzoic acid] | < 500 nM | 1000 to 5000 nM
22 | Cc1cc(C(C)Nc2ccccc2C(=O)O)c2oc(-c3ccc4c(n3)N(C)C(=O)C4)cc(=O)c2c1 (single isomer, unassigned) [Example 141, 2-[1-[6-Methyl-2-(1-methyl-2-oxo-3H-pyrrolo[2,3-b]pyridin-6-yl)-4-oxo-chromen-8-yl]ethylamino]benzoic acid] | < 500 nM | 1000 to 5000 nM
23 | Cc1c(-c2ccc3nn(C)cc3c2)oc2c(C(C)Nc3ccccc3C(=O)O)cc(F)cc2c1=O (single isomer, unassigned) [Example 148, 2-[1-[6-Fluoro-3-methyl-2-(2-methylindazol-5-yl)-4-oxo-chromen-8-yl]ethylamino]benzoic acid] | < 500 nM | 500 to 1000 nM
24 | Cc1cc(C(C)Nc2ccccc2C(=O)O)c2oc(-c3c[nH]c4ccccc34)c(C)c(=O)c2c1 (single isomer, unassigned) [Example 154, 2-[1-[2-(1H-Indol-3-yl)-3,6-dimethyl-4-oxo-chromen-8-yl]ethylamino]benzoic acid] | < 500 nM | 1000 to 5000 nM
25 | Cc1cc(C(C)Nc2ccccc2C(=O)O)c2oc(-c3c[nH]c4ccccc34)cc(=O)c2c1 (single isomer, unassigned) [Example 155, 2-[1-[2-(1H-Indol-3-yl)-6-methyl-4-oxo-chromen-8-yl]ethylamino]benzoic acid] | < 500 nM | 1000 to 5000 nM
26 | Cc1cc(C(C)Nc2ccccc2C(=O)O)c2oc(-c3ccn4cnnc4c3)cc(=O)c2c1 (single isomer, unassigned) [Example 161, 2-[1-[6-Methyl-4-oxo-2-([1,2,4]triazolo[4,3-a]pyridin-7-yl)chromen-8-yl]ethylamino]benzoic acid] | 500 to 1000 nM | > 10000 nM
27 | Cc1cc(C(C)Nc2ccccc2C(=O)O)c2oc(-c3ccc4c(cnn4C)n3)cc(=O)c2c1 (single isomer, unassigned) [Example 164, 2-[1-[6-Methyl-2-(1-methylpyrazolo[4,3-b]pyridin-5-yl)-4-oxo-chromen-8-yl]ethylamino]benzoic acid] | < 500 nM | 1000 to 5000 nM

Source: US11878970B2, “Allosteric chromenone inhibitors of phosphoinositide 3-kinase (PI3K) for the treatment of disease” (Petra Pharma Corporation, priority 2021, dated 2024)
